Results on 1 molecule are retold here after US20250120942A1, “BRAIN FUNCTION IMPROVING AGENT” (OSAKA UNIVERSITY, priority 2021, published 2025).

Test [1] relates to mouse reared in long-term isolation. Kind of test: Novel object recognition test after long-term administration in feed during isolated rearing (Test Example 4). Conditions: MF powdery feed containing 7 mg/100 g for 5 weeks of isolation; FIG. 4(A),(B). It counts as in vivo, ddY mouse. The method, then:
The compound A was orally administered for a long time and the effect of preventing the onset of cognitive dysfunction caused by the long-term isolated rearing was examined.
3-weeks-old male ddY mice were purchased from Japan SLC, Inc. The mice were reared in the rearing chamber provided with air conditioner (under the condition that the temperature was 22° C.±1° C., the relative humidity was 50±10%, and the irradiation time was 12 hours (8:00 to 20:00)). The feeding method was that the commercially available MF powdery feed (manufactured by Oriental Yeast Co., ltd.) and tap water were taken freely. […]
After the long-term rearing of 5 weeks, the object cognitive function was evaluated by the same method as that described in Test Example 3 and the effect of preventing the onset of cognitive dysfunction by administering the compound A during the long-term rearing was examined.
From the results obtained, the mean (Mean) and the standard error (SEM) were calculated. The significant difference of exploratory time in each group was assessed by using Student's t-test and the significant differences between the control group and Vehicle group and between the administration group of compound A and Vehicle group of Discrimination index were assessed by using Turkey-Kramer's test. […]

The test system of test [2] is scopolamine-induced amnesia mouse. Put plainly: Y-maze test, short-term working memory of scopolamine-induced amnesia mouse (Test Example 2). It counts as in vivo, ddY mouse. Conditions: for scopolamine-induced reduction in working memory (Spontaneous Alternation): FIG. 2(C). The method, then:
The effect of inhibiting lowering of short-term memory was examined by orally or subcutaneously (intraperitoneally) administering the compound A to the mouse.
7-weeks-old male ddY mice were purchased from Japan SLC, Inc. and subjected to the experiment after one week habituation period. The animals were reared in the rearing chamber provided with air conditioner (under the condition that the temperature was 22° C.±1° C., the relative humidity was 50±10%, and the irradiation time was 12 hours (8:00 to 20:00)). The feeding method was that the commercially available MF powdery feed (manufactured by Oriental Yeast Co., ltd.) and tap water were taken freely.
The compound A prepared according to the procedure described in Manufacturing Example 1 was dissolved in 2.5% DMSO solution in advance. There were 15 mice in each group, and the 30 mg/kg compound administration group and the 10 mg/kg compound administration group were established and orally administered. The mice of the control group and Vehicle group were orally administered with only 2.5% DMSO solution. In the same manner the compound B and the compound C were orally administered to 10 mice at a dose of 30 mg/kg respectively. Each mouse of the administration groups of the compound A to C and the vehicle group was intraperitoneally administered with scopolamine hydrobromide (manufactured by Sigma-Aldrich Japan S1875) (a dose of 1 mg/kg) which is muscarinic acetylcholine receptor antagonist 30 minutes after the administration. The mice of the control group which were not administered with scopolamine hydrobromide were intraperitoneally administered with (Japanese Pharmacopoeia) physiological saline solution (OTSUKA NORMAL SALINE 3311401A2026). At 30 minutes after the final administration, Y-maze test was conducted, and the working memory was evaluated. The test using the mice orally administered was separately conducted under the same condition as that described above for comparative evaluation of the intraperitoneal administration.
The Y-maze manufactured by Brain Science. idea Co., Ltd. was used for the test. The maze was the maze 3 courses of which were made into Y-letter shape having one selection point and arranged at interval of an angle of 120 degree. […] The mouse put on the gray course (made of polyvinyl chloride) was kept in the conditions and the mouse can see nothing but the upper part. Any one of the 3 courses of the maze was set as a starting point. After placing the mouse quietly at the starting point, the number of the times the mouse entered each course was record per 8 minutes, and as well as which course and in what order the mouse entered it. The ratio of the number of three consecutive entries into different courses (the number of the alternation behavior) to the total number of the selections was calculated as Spontaneous Alternation (%) according to the following formula and was used as an index of the short-term working memory.
From the results obtained, the mean (Mean) and the standard error (SEM) were calculated. The significant difference between the control group and the Vehicle group and between the compound A administration group and the Vehicle group was assessed by Turkey-Kramer's test. The level of significance was set to *P<0.05 and **p<0.01.

In the case of `O=C1CC[C@H](Cc2cc(O)cc(O)c2)O1` [compound A, (R)-5-(3,5-dihydroxyphenyl)-γ-valerolactone], in test [1], the “onset of cognitive dysfunction caused by long-term isolated rearing stress (exploratory time and Discrimination index)” value was “significantly inhibited”. In addition, the “ameliorating the impairment of short-term working memory (Spontaneous Alternation)” value in test [2] (oral 30 mg/kg, scopolamine 1 mg/kg i.p., FIG. 2(A),(B)) is given as “significant effect of inhibiting the lowering of short-term working memory”. For the same molecule, the “lowering of the short-term memory due to scopolamine (Spontaneous Alternation)” value in test [2] (oral administration groups (10 mg/kg and 30 mg/kg), scopolamine 1 mg/kg i.p. 30 minutes later, FIG. 2(A)) is recorded as “inhibited”. Also, the “scopolamine-induced reduction in working memory (Spontaneous Alternation)” value in test [2] (oral administration) and in test [2] (subcutaneous administration) was “inhibited scopolamine-induced reductions in working memory” in each case.
